Blank lines part the entries; values can stand above or below the compound they belong to.
What was measured:
Format in all cases: biochemical
[1] = biological target: T1, KDM4C (JMJD2C) (Homo sapiens, UniProt Q9H3R0); experiment: Histone lysine demethylase AlphaLISA assay, KDM4C; settings: in vitro enzyme, read-out: KDM4C IC50 (HDME Inhibition)
T1 construct: 1-349; host or cells: E. coli
T1 sequence (Q9H3R0 1-349): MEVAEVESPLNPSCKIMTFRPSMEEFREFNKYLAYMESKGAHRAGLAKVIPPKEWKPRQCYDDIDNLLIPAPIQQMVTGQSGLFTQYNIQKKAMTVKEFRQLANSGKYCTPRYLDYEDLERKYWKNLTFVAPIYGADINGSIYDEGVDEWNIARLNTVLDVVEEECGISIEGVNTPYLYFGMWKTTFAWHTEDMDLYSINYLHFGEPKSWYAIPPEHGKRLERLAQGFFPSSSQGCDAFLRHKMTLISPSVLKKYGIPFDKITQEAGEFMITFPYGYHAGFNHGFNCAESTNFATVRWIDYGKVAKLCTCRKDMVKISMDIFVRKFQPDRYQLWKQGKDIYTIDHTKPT
Experimental: (§1) Histone lysine demethylase AlphaLISA assays are performed to determine IC50 values. […] Assays are performed analogously to the protocol described by PerkinElmer (Roy et al. PerkinElmer Technical Note: AlphaLISA #12, April 2011).
(§2) Assays are performed analogously to the protocol described by PerkinElmer (Roy et al. PerkinElmer Technical Note: AlphaLISA #12, April 2011).
(§3) Enzymes (final assay concentration 0.1-2.5 nM) are dissolved in enzyme buffer and incubated for 10 min before 5 μL is added to 5 μL 3% DMSO solutions of compounds in enzyme buffer, incubated for another 10 minutes, before 5 μL substrate solution is added and the reaction mixture is incubated at room temperature. 10 μL acceptor beads, suspended Epigenetic Buffer (Perkin Elmer AL008) from stock, are added and the suspension is incubated in the dark at room temperature, before 10 μL suspension of streptavidin donor beads (Perkin Elmer 6760002) in Epigenetic Buffer is added. After incubation at room temperature in the dark the plates are read.
(§4) Substrate solution: Substrate (final assay concentration 50-200 nM), 50 mM Hepes (pH 7.4-8.0), 0.003% Tween-20, 0.1% BS, 25 μM L-Asc, 10 μM α-KG. Enzyme Buffer: 50 mM Hepes (pH 7.4-8.0), 0.003% Tween-20, 0.1% BSA; 5 μM (NH4)2Fe(SO4)2

[2] = biological target: T2, KDM6A (UTX) (Homo sapiens, UniProt O15550); experiment: Histone lysine demethylase AlphaLISA assay, KDM6A; settings: in vitro enzyme, read-out: KDM6A IC50 (HDME Inhibition)
T2 construct: 919-1401; host or cells: E. coli
T2 sequence (O15550 919-1401): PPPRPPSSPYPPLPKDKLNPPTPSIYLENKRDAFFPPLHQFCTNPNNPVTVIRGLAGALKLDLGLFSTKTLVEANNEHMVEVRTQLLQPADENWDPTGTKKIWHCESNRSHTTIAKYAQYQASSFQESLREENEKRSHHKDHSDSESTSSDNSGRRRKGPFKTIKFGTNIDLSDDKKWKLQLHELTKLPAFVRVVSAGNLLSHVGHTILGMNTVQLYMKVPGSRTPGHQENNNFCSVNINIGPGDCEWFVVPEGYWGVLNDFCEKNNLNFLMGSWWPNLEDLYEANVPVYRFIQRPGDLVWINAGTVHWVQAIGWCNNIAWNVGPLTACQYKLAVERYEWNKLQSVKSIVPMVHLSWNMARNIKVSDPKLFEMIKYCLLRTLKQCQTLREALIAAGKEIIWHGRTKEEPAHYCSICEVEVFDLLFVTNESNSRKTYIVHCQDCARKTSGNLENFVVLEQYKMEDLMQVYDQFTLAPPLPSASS
Experimental: as §1, §2, §3, §4

[3] = biological target: PHF8 (KDM7) (Homo sapiens, UniProt Q9UPP1); experiment: Histone lysine demethylase AlphaLISA assay, PHF8; settings: in vitro enzyme, read-out: PHF8 IC50 (HDME Inhibition)
Sequence of PHF8 (KDM7) (Q9UPP1 whole entry): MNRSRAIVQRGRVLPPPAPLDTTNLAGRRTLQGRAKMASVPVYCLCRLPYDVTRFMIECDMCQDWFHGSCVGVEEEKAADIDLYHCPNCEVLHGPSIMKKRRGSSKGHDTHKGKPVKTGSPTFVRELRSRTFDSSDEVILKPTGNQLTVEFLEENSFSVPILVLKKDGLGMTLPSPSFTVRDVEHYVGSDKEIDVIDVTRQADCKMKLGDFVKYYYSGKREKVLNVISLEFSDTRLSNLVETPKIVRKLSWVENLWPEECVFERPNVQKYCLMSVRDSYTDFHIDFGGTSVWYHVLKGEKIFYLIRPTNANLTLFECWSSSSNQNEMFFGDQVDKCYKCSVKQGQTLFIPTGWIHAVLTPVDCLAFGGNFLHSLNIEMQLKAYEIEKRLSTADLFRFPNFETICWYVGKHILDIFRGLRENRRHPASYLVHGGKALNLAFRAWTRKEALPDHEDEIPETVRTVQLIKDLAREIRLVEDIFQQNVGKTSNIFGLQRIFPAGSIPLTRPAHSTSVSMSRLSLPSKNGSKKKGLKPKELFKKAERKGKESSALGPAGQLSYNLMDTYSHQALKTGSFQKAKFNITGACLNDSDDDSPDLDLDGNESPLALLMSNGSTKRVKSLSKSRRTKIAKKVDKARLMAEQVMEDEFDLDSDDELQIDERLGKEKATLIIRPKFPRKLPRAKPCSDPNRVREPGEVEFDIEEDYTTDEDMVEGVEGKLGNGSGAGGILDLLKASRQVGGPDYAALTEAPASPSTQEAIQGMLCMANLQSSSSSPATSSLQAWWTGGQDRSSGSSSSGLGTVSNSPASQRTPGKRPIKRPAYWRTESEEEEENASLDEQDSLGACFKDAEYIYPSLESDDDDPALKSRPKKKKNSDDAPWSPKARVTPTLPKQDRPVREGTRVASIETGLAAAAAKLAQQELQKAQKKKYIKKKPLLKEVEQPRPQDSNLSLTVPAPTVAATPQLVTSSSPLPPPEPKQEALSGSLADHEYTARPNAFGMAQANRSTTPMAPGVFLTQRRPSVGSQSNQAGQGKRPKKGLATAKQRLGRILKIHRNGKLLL
Experimental: as §1, §2, §3, §4

[4] = biological target: T3, KDM5B (PLU-1) (Homo sapiens, UniProt Q9UGL1); experiment: Histone lysine demethylase AlphaLISA assay, KDM5B; settings: in vitro enzyme, read-out: KDM5B IC50 (HDME Inhibition)
T3 construct: 1-809; host or cells: E. coli
T3 sequence (Q9UGL1 1-809): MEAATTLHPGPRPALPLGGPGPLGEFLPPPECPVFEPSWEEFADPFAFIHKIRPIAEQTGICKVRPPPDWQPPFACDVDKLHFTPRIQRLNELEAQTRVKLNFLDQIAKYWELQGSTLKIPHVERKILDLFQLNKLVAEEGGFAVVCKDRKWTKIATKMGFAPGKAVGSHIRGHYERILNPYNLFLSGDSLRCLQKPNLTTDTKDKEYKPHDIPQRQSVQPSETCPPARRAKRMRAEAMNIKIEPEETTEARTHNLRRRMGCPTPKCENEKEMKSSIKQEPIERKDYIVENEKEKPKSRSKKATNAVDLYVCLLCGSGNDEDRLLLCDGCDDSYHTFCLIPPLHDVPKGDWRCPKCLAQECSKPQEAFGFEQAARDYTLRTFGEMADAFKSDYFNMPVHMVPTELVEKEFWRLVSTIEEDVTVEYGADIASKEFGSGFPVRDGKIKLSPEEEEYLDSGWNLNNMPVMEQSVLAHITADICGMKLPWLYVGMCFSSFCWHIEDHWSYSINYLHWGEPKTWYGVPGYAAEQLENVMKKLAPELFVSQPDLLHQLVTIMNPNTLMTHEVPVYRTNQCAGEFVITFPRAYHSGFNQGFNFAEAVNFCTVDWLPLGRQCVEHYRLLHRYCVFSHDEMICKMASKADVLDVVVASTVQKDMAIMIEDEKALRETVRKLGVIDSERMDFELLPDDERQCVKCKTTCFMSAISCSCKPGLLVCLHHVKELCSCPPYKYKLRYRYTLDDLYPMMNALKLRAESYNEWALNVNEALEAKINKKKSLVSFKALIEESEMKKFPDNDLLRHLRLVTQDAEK
Experimental: as §1, §2, §3, §4

[5] = biological target: T4, KDM2B (FBXL10) (Homo sapiens, UniProt Q8NHM5); experiment: Histone lysine demethylase AlphaLISA assay, KDM2B; settings: in vitro enzyme, read-out: KDM2B IC50 (HDME Inhibition)
T4 construct: 1-650; purchased BPS Bioscience, US; host or cells: Bac (baculovirus/insect cells)
T4 sequence (Q8NHM5 1-650): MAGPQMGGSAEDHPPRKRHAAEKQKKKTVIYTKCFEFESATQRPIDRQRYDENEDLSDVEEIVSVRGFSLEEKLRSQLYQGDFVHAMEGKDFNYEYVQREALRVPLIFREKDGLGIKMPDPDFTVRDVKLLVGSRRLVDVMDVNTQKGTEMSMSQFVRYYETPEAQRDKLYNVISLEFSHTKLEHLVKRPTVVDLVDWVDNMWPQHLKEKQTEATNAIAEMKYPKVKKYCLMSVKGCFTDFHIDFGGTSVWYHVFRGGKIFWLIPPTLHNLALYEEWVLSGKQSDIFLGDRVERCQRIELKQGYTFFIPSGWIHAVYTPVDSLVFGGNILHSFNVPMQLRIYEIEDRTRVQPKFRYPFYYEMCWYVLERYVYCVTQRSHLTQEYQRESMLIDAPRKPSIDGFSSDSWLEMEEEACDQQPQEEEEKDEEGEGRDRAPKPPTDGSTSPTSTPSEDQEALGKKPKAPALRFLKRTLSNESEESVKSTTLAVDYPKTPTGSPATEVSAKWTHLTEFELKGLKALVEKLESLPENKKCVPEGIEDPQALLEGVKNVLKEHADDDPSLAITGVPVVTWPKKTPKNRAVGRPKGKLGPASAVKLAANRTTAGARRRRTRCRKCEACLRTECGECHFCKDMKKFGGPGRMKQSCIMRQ
Experimental: as §1, §2, §3, §4

Compound: O=C(O)c1ccnc(CNCc2nccn2C/C=C/c2ccccc2)c1 [Compound 13, 2-{[({1-[(2E)-3-phenylprop-2-en-1-yl]-1H-imidazol-2-yl}methyl)amino]methyl}pyridine-4-carboxylic acid]
- IC50 [1]: > 2.5 µM
- IC50 [2]: > 2.5 µM
- IC50 [4]: < 0.25 µM

Compound: CSCC[C@H](NCc1cc(C(=O)O)ccn1)C(=O)OC(C)(C)C [Compound 49, 2-({[(2S)-1-(tert-butoxy)-4-(methylsulfanyl)-1-oxobutan-2-yl]amino}methyl)pyri-dine-4-carboxylic acid]
- IC50 [5]: 0.25 to 2.5 µM
- IC50 [3]: 0.25 to 2.5 µM
- IC50 [2]: > 2.5 µM

Compound: O=C(O)c1ccnc(CN2CCC(c3ccc(F)cc3)n3ccnc3C2)c1 (stereo not shown) [Compound 50, 2-{[5-(4-fluorophenyl)-5H,6H,7H,8H,9H-imidazo[1,2-a][1,4]diazepin-8-yl]methyl}pyridine-4-carboxylic acid]
- IC50 [1]: > 2.5 µM
- IC50 [3]: > 2.5 µM
- IC50 [4]: 0.25 to 2.5 µM

Compound: O=C(O)c1ccnc(CN2CCCC(C3CCCCC3)C2CO)c1 (stereo not shown) [Compound 62, 2-{[3-cyclohexyl-2-(hydroxymethyl)piperidin-1-yl]methyl}pyridine-4-carboxylic acid]
- IC50 [1]: > 2.5 µM
- IC50 [4]: 0.25 to 2.5 µM

Compound: O=C(O)c1ccnc(CN2CCCC(c3ccccc3)C2CO)c1 (stereo not shown) [Compound 63, 2-{[2-(hydroxymethyl)-3-phenylpiperidin-1-yl]methyl}pyridine-4-carboxylic acid]
- IC50 [1]: > 2.5 µM
- IC50 [4]: > 2.5 µM

Compound: COc1ccc([C@@H](C)N2CC[C@@H](CNCc3cc(C(=O)O)ccn3)C2=O)cc1 [Compound 78, 2-[({[(3S)-1-[(1R)-1-(4-methoxyphenyl)ethyl]-2-oxopyrrolidin-3-yl]methyl}amino)methyl]pyridine-4-carboxylic acid]
- IC50 [5]: < 0.25 µM
- IC50 [3]: < 0.25 µM
- IC50 [2]: > 2.5 µM

Compound: O=C(O)c1ccnc(CNC2CCc3c(Br)ccnc32)c1 (stereo not shown) [Compound 91, 2-[({4-bromo-5H,6H,7H-cyclopenta[b]pyridin-7-yl}amino)methyl]pyri-dine-4-carboxylic acid]
- IC50 [1]: 0.25 to 2.5 µM
- IC50 [4]: < 0.25 µM

Compound: O=C(O)c1ccnc(CNC2CCc3c(Cc4ccccc4)ccnc32)c1 (stereo not shown) [Compound 92, 2-[({4-benzyl-5H,6H,7H-cyclopenta[b]pyridin-7-yl}amino)methyl]pyri-dine-4-carboxylic acid]
- IC50 [5]: 0.25 to 2.5 µM
- IC50 [3]: 0.25 to 2.5 µM
- IC50 [2]: > 2.5 µM
- IC50 [4]: < 0.25 µM

Compound: C=Cc1ccnc2c1CCC2NCc1cc(C(=O)O)ccn1 (stereo not shown) [Compound 100, 2-[({4-ethenyl-5H,6H,7H-cyclopenta[b]pyridin-7-yl}amino)methyl]pyri-dine-4-carboxylic acid]
- IC50 [1]: 0.25 to 2.5 µM
- IC50 [3]: < 0.25 µM
- IC50 [4]: < 0.25 µM

More lines, now with the values ahead:

- IC50 [1]: > 2.5 µM
- IC50 [2]: > 2.5 µM
Compound: CC(N[C@@H](C)C(=O)NCc1cccc(C(=O)O)c1)c1cc(C(=O)O)ccn1 (stereo partly drawn) [Compound 1, 2-(1-{[(1S)-1-{[(3-carboxyphenyl)methyl]carbamoyl}ethyl]amino}ethyl)pyridine-4-carboxylic acid]

- IC50 [1]: > 2.5 µM
- IC50 [3]: > 2.5 µM
- IC50 [4]: > 2.5 µM
Compound: CC(N[C@@H](C)C(=O)NCc1ccc([N+](=O)[O-])cc1)c1cc(C(=O)O)ccn1 (stereo partly drawn) [Compound 5, 2-(1-{[(1S)-1-{[(4-nitrophenyl)methyl]carbamoyl}ethyl]amino}ethyl)pyridine-4-carboxylic acid]

- IC50 [1]: > 2.5 µM
- IC50 [2]: > 2.5 µM
- IC50 [4]: > 2.5 µM
Compound: CC(N[C@@H](C)C(=O)NCc1ccncc1)c1cc(C(=O)O)ccn1 (stereo partly drawn) [Compound 15, 2-(1-{[(1S)-1-[(pyridin-4-ylmethyl)carbamoyl]ethyl]amino}ethyl)pyri-dine-4-carboxylic acid]

- IC50 [5]: 0.25 to 2.5 µM
- IC50 [3]: 0.25 to 2.5 µM
- IC50 [2]: > 2.5 µM
- IC50 [4]: 0.25 to 2.5 µM
Compound: CCN(CC)C(=O)CCN(CCNC(C)=O)Cc1cc(C(=O)O)ccn1 [Compound 27, 2-({[2-(diethylcarbamoyl)ethyl](2-acetamidoethyl)amino}methyl)pyridine-4-carboxylic acid]

- IC50 [1]: < 0.25 µM
- IC50 [4]: < 0.25 µM
Compound: CC(C)C[C@@H](CO)NCc1cc(C(=O)O)ccn1 [Compound 61, (S)-2-{[(1-hydroxy-4-methylpentan-2-yl)amino]methyl}pyri-dine-4-carboxylic acid]

- IC50 [1]: 0.25 to 2.5 µM
- IC50 [3]: < 0.25 µM
- IC50 [4]: 0.25 to 2.5 µM
Compound: CCNC(=O)C1CN(Cc2cc(C(=O)O)ccn2)C1 [Compound 68, 2-{[3-(ethylcarbamoyl)azetidin-1-yl]methyl}pyridine-4-carboxylic acid]

- IC50 [1]: > 2.5 µM
- IC50 [3]: > 2.5 µM
Compound: O=C(O)c1ccnc(CN2CCCC[C@H]2CC(=O)N2CCCCC2)c1 [Compound 70, 2-{[(2S)-2-[2-oxo-2-(piperidin-1-yl)ethyl]piperidin-1-yl]methyl}pyridine-4-carboxylic acid]

- IC50 [5]: 0.25 to 2.5 µM
- IC50 [3]: 0.25 to 2.5 µM
- IC50 [2]: > 2.5 µM
- IC50 [4]: > 2.5 µM
Compound: CCNC(=O)C1CCN(Cc2cc(C(=O)O)ccn2)CC1 [Compound 75, 2-{[4-(ethylcarbamoyl)piper-idin-1-yl]methyl} pyridine-4-carboxylic acid]

- IC50 [5]: 0.25 to 2.5 µM
- IC50 [3]: < 0.25 µM
- IC50 [2]: > 2.5 µM
- IC50 [4]: < 0.25 µM
Compound: CC(C)(C)c1nc2ccccn2c1CNCc1cc(C(=O)O)ccn1 [Compound 88, 2-{[({2-tert-butylimidazo[1,2-a]pyridin-3-yl}methyl)amino]methyl}pyridine-4-carboxylic acid]

- IC50 [1]: 0.25 to 2.5 µM
- IC50 [3]: < 0.25 µM
- IC50 [4]: < 0.25 µM
Compound: O=C(O)c1ccnc(CNC2CCCn3ccnc32)c1 (stereo not shown) [Compound 90, 2-[({5H,6H,7H,8H-imidazo[1,2-a]pyridin-8-yl}amino)methyl]pyri-dine-4-carboxylic acid]

- IC50 [5]: < 0.25 µM
- IC50 [3]: < 0.25 µM
- IC50 [2]: > 2.5 µM
Compound: CCN1CC[C@@H](CNCc2cc(C(=O)O)ccn2)C1=O [Compound 105, 2-[({[(3S)-1-ethyl-2-oxopyrrolidin-3-yl]methyl}amino)methyl]pyridine-4-carboxylic acid]
